Where two headings read alike, the source gives them in different places.
Assays:
E6 WT/E6AP [1] = target: T1, E6 WT/E6AP (Human papillomavirus type 16, UniProt P03126); experiment: biochemical; format: binding; settings: WT 16E6; for inhibition at 10 µM: 10 μM compound; for inhibition at 100 µM: 100 μM compound
E6C51S/E6AP [2] = target: T2, E6C51S/E6AP (Human papillomavirus type 16, UniProt P03126, C58S); experiment: E6/E6AP binding assay (amylose-bound MBP-16E6, E6AP-BAP activity), C51S 16E6; set-up: species or system HPV-16; settings: for % Inhibition @ 10 μM E6C51S/E6AP: 10 μM compound; for % Inhibition @ 100 μM E6C51S/E6AP: 100 μM compound
T2 sequence (P03126 whole entry C58S, looked up): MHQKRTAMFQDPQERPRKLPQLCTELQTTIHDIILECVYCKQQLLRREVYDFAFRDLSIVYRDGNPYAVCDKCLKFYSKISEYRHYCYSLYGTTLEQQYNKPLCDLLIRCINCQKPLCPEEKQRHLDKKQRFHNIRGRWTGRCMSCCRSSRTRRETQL

E6 WT/E6AP [3] = target: T1, E6 WT/E6AP; experiment: biochemical; format: binding; settings: for Emax: at 24 h, E6 WT, read-out: BLI maximal Inhibition (max %) E6 WT/E6AP
E6C51S/E6AP [4] = target: T2, E6C51S/E6AP; experiment: BLI binding assay, E6 C51S binding to captured E6AP; set-up: species or system HPV-16; settings: for BLI maximal Inhibition (max %) E6C51S/E6AP: at 24 h, E6 C51S
wild-type E6 = wild-type E6 (Human papillomavirus type 16, UniProt P03126); format: binding; settings: 100 μM for 16 hr at 4° C., FIG. 1A top
wild-type E6, sequence (P03126 8-158): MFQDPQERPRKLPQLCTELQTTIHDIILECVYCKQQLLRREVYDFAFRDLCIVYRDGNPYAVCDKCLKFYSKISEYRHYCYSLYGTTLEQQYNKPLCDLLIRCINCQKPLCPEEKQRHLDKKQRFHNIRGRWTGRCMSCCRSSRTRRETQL

E6 Cys51Ser mutant = E6 Cys51Ser mutant (Human papillomavirus type 16, UniProt P03126, C58S); experiment: Whole protein ESI mass spectrometry, adduct with E6 Cys51Ser mutant; format: binding, HPV-16; settings: 100 μM for 16 hr at 4° C., FIG. 1A bottom
E6 Cys51Ser mutant, sequence (P03126 8-158 C58S): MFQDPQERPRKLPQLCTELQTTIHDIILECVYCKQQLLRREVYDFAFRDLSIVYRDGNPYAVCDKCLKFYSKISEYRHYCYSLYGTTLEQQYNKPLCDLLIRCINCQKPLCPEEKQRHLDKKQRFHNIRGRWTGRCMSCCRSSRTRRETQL

E6 WT/E6AP [5] = target: T1, E6 WT/E6AP; experiment: biochemical; format: binding; settings: for Emax: 24 h, read-out: FP maximal inhibition (max %) E6 WT/E6AP
E6C51S/E6AP [6] = target: T2, E6C51S/E6AP; experiment: Fluorescence Polarization (FP) assay, MBP-E6 C51S with labeled peptide; format: binding, HPV-16; settings: at 24 h
RPE-1 cells = experiment: Colony formation, crystal violet absorbance at 590 nm; format: cell-based; settings: RPE-1 cells (no HPV), 14 days, normalized to DMSO, FIG. 6
Procedure: FIG. 6 depicts colony formation capabilities of SiHa, CaSki or RPE-1 cells in the presence of the indicated concentrations of EIN-166. Fifty cells were seeded and incubated with DMSO or EIN-166. After 14 days, cells were fixed and stained with crystal violet. Stained colonies were dissolved and absorbance at 590 nm was measured. Treatments were normalized to DMSO. Data expressed as S.E.M and *P<0.05 (n=3).

T1 sequence (P03126 8-158): as the sequence (P03126 8-158) above

Cc1ccccc1C1c2ccsc2CCN1CC(=O)N1CCCN(C(=O)CCl)CC1 (stereo not drawn) [EIN-116, 2-chloro-1-(4-(2-(4-(o-tolyl)-6,7-dihydrothieno[3,2-c]pyridin-5(4H)-yl)acetyl)-1,4-diazepan-1-yl)ethan-1-one]
inhibition at 10 µM (E6 WT/E6AP [1]): 29 ± 8%
inhibition at 100 µM (E6 WT/E6AP [1]): 74 ± 3%
% Inhibition @ 10 μM E6C51S/E6AP (E6C51S/E6AP [2]): 5 ± 5%
% Inhibition @ 100 μM E6C51S/E6AP (E6C51S/E6AP [2]): 36 ± 11%
inhibition of E6 binding to E6AP (BLI), in words (E6 WT/E6AP [3]; E6 WT with increasing concentration of compound): inhibited E6 binding to E6AP in a concentration-dependent manner
Emax (E6 WT/E6AP [3]): 100%
loss of ability to inhibit mutant form E6-Cys51Ser (BLI), in words (E6C51S/E6AP [4]; FIG. 1B, E6-Cys51Ser): partly
BLI maximal Inhibition (max %) E6C51S/E6AP (E6C51S/E6AP [4]): (max 100%)
adduct formation with wild-type E6 (wild-type E6): formed an adduct
adduct formation with E6 Cys51Ser mutant (E6 Cys51Ser mutant): not with E6 Cys51Ser mutant

C=CC(=O)N1CCN(c2nc(Cc3ccc(F)cc3)nc3sc4c(c23)CCCC4)CC1 [EIN-146, 1-(4-(2-(4-fluorobenzyl)-5,6,7,8-tetrahydrobenzo[4,5]thieno[2,3-d]pyrimidin-4-yl)piperazin-1-yl)prop-2-en-1-one]
inhibition at 10 µM (E6 WT/E6AP [1]): 16 ± 4%
inhibition at 100 µM (E6 WT/E6AP [1]): 30 ± 3%
% Inhibition @ 10 μM E6C51S/E6AP (E6C51S/E6AP [2]): 11 ± 7%
% Inhibition @ 100 μM E6C51S/E6AP (E6C51S/E6AP [2]): 15 ± 8%
Emax (E6 WT/E6AP [3]): 100%
BLI maximal Inhibition (max %) E6C51S/E6AP (E6C51S/E6AP [4]): (max 100%)
Emax (E6 WT/E6AP [5]): 20%

C=CC(=O)N1CCN(c2nc(CCc3cccc(OC)c3)nc3sccc23)CC1 [EIN-152, 1-(4-(2-(3-methoxyphenethyl)thieno[2,3-d]pyrimidin-4-yl)piperazin-1-yl)prop-2-en-1-one]
Emax (E6 WT/E6AP [3]): 100%
BLI maximal Inhibition (max %) E6C51S/E6AP (E6C51S/E6AP [4]): (max 60%)
Emax (E6 WT/E6AP [5]): 98%
FP maximal inhibition (max %) E6C51S/E6AP (E6C51S/E6AP [6]): (max 100%)

C=CC(=O)N1CCN(c2nc(CCc3cccc(OC)c3)nc3ccccc23)CC1 [EIN-154, 1-(4-(2-(3-methoxyphenethyl)quinazolin-4-yl)piperazin-1-yl)prop-2-en-1-one]
Emax (E6 WT/E6AP [3]): 100%
BLI maximal Inhibition (max %) E6C51S/E6AP (E6C51S/E6AP [4]): (max 75%)
Emax (E6 WT/E6AP [5]): 93%

COc1cccc(CCc2nc(N3CCN(C(=O)/C=C/CN(C)C)CC3)c3ccccc3n2)c1 [EIN-155, (E)-4-(dimethylamino)-1-(4-(2-(3-methoxyphenethyl)quinazolin-4-yl)piperazin-1-yl)but-2-en-1-one]
Emax (E6 WT/E6AP [3]): 100%
BLI maximal Inhibition (max %) E6C51S/E6AP (E6C51S/E6AP [4]): (max 100%)
Emax (E6 WT/E6AP [5]): 100%

C=CC(=O)N1CCN(C(=O)CN2CCc3ccccc3C2c2ccccc2C)CC1 (stereo not drawn) [EIN-166, 1-(4-(2-(1-(o-tolyl)-3,4-dihydroisoquinolin-2(1H)-yl)acetyl)piperazin-1-yl)prop-2-en-1-one]
Emax (E6 WT/E6AP [5]): 100%
IC50 (E6 WT/E6AP [5]; FP IC50 at 24 h (μM) E6 WT/E6AP): 73.4 ± 3.7 µM
colony formation capability (RPE-1 cells): no significant changes
